Laboratory results taken from ChEMBL document CHEMBL1127000, “Synthesis and excitatory amino acid pharmacology of some novel quinoxalinediones” (Bioorg Med Chem Lett, 1993).

How the values were obtained:
[1] = biological target: Glutamate receptor ionotropic, AMPA (Rattus norvegicus) (UniProt P19491+P19492+P19493+P19490); test: Binding affinity for Ionotropic glutamate receptor AMPA was determined by the ability to displace [3H]AMPA in rat cortical membranes at 10 uM; format: cell membranes
[2] = biological target: Glutamate receptor ionotropic, NMDA 1 (Rattus norvegicus) (UniProt P35439); test: Binding affinity for glycine site-NMDA receptor was determined by the ability to displace [3H]glycine in rat cortical membranes at 10 uM; format: cell membranes
[3] = biological target: Glutamate receptor ionotropic, NMDA 1 (Rattus norvegicus, UniProt P35439); test: Binding affinity for glycine site-NMDA receptor was determined by the ability to displace [3H]glycine in rat cortical membranes; format: cell membranes
[4] = biological target: Glutamate receptor ionotropic, AMPA (Rattus norvegicus, UniProt P19490+P19491+P19492+P19493)
[5] = biological target: Glutamate receptor ionotropic, NMDA 1 (Rattus norvegicus) (UniProt P35439); test: Tested for the ability to displace [3H]glycine in rat cortical membranes at a concentration of 10 uM; format: cell membranes

Row | Displacement [1] [%] | Displacement [2] [%] | Ki [3] [µM] | Ki [4] [µM] | Displacement [5] [%] | SMILES
1 | 49 | 36 | – | – | – | Cc1cc2[nH]c(=O)c(=O)n(CC(=O)NS(C)(=O)=O)c2cc1C
2 | – | – | 13.8 | 0.7 | – | Cc1cc2[nH]c(=O)c(=O)n(CC(=O)O)c2cc1C
3 | 13.9 | 2.6 | – | – | – | Cc1cc2[nH]c(=O)c(=O)n(C(C)C(=O)O)c2cc1C (centres undefined)
4 | – | 29.6 | – | 8 | – | Cc1cc2[nH]c(=O)c(=O)n(CCCC(=O)O)c2cc1C
5 | – | – | 5.28 | 1.21 | – | Cc1cc2[nH]c(=O)c(=O)n(CP(=O)(O)O)c2cc1C
6 | 52.4 | 49.6 | – | – | – | Cc1cc2[nH]c(=O)c(=O)n(Cc3nn[nH]n3)c2cc1C
7 | 4.6 | – | – | – | 8 | COC(=O)Cn1c(=O)cnc2cc(C)c(C)cc21
8 | 5.2 | – | – | – | 2.9 | Cc1cc2[nH]c(=O)c(=O)n(CC(=O)Nc3ccccc3)c2cc1C
9 | 58.6 | 58.8 | – | – | – | O=c1[nH]c2cc(Cl)c(Cl)cc2n(Cc2nn[nH]n2)c1=O
10 | – | – | 0.11 | 2.1 | – | O=C(O)Cn1c(=O)c(=O)[nH]c2cc(Cl)c(Cl)cc21
11 | 28 | 48 | – | – | – | Cc1ccc(S(=O)(=O)NC(=O)Cn2c(=O)c(=O)[nH]c3cc(C)c(C)cc32)cc1
12 | 28.5 | 58.2 | – | – | – | Cc1cc2[nH]c(=O)c(=O)n(CCC(=O)O)c2cc1C
